Laboratory results: patent US20130029961A1, “Substituted Heterocyclic Aza Compounds” (Gruenenthal GmbH, priority 2011, published 2013)

The compounds below were run against T1, TRPV1 human (Homo sapiens, UniProt Q8NER1) (assay: Functional FLIPR Ca2+ influx assay on vanilloid receptor 1 (VR1/TRPV1), capsaicin stimulus). Settings: functional (f), vs capsaicin (CAP); Ki from IC50 by Cheng-Prusoff.
T1 construct: expressed in transfected cells; host or cells: CHO K1 cells
T1 sequence (Q8NER1 whole entry): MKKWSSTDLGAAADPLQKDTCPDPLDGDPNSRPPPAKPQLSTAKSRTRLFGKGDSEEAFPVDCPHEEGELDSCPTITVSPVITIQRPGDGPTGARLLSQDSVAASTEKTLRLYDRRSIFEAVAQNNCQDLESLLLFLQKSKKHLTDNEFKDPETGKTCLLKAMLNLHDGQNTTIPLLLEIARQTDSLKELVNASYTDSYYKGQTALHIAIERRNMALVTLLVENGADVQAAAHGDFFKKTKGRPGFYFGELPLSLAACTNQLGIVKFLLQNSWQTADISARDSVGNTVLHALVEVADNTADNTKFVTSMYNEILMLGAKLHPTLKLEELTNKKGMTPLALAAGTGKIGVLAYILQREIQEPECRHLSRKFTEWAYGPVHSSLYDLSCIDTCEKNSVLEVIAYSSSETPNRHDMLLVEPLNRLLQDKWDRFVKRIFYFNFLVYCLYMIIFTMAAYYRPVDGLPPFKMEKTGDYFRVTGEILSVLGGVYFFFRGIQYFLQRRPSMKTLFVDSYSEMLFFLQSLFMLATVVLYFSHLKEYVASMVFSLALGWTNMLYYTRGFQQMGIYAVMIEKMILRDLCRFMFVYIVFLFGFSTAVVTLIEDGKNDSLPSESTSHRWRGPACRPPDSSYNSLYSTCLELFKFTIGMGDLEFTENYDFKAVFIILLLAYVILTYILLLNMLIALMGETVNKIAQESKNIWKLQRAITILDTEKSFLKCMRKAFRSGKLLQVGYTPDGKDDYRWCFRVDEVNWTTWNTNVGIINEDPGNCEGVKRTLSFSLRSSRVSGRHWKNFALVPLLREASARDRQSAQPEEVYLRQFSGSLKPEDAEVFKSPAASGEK
Assay type: cell-based
Set-up: key to TRPV1 human (f) CAP, agonist (AG): AG denotes agonist
Compound `CC1CCN(c2nc(C(F)(F)F)ccc2CNC(=O)Cc2cccnc2)CC1` [compound 31] has a Ki of 6 nM. Compound `CC1CCN(c2nc(C(F)(F)F)ccc2CNC(=O)C(C)c2cnc(C(=O)Nc3ccccc3)nc2)CC1` (stereo not drawn) [compound 76] has a Ki of 77 nM. `COCCNc1ccc(NC(=O)NCc2ccc(C(F)(F)F)nc2N2CCC(C)CC2)cn1` [compound 88] showed a Ki of 16 nM. `CC1CCN(c2nc(C(F)(F)F)ccc2CNC(=O)Nc2ccc(N(C)CCO)nc2)CC1` [compound 90] gave a Ki of 19 nM. With `O=C(Cc1ccccn1)NCc1ccc(C(F)(F)F)nc1-c1cccc(Cl)c1` [compound 5] the Ki was 91 nM. `CC1CCN(c2nc(C(F)(F)F)ccc2CNC(=O)Nc2ccccn2)CC1` [compound 19] gave a Ki of 35 nM. In the case of `CC(C(=O)NCc1ccc(C(F)(F)F)nc1N1CCCC1)c1cnc(C(=O)Nc2ccc(F)cc2)nc1` (stereo not drawn) [compound 78], the Ki is reported as 42 nM. Work on `CC1CCN(c2nc(C(F)(F)F)ccc2CNC(=O)C(C)c2ccccn2)CC1` (stereo not drawn) [compound 14] yielded a Ki of 45 nM. In the case of `CC1CCN(c2nc(C(F)(F)F)ccc2CNC(=O)Nc2ccc(NCCO)nc2)CC1` [compound 86], the Ki is reported as 1 nM. For `CC1CCN(c2nc(C(F)(F)F)ccc2CNC(=O)Nc2ccc(N3CC[C@@H](O)C3)nc2)CC1` [compound 118], the Ki was 10 nM. In the case of `COc1ccc(C(C)C(=O)NCc2ccc(C(F)(F)F)nc2N2CCC(C)CC2)cn1` (stereo not drawn) [compound 120], the Ki is reported as 44 nM. In the case of `COCCNc1ccc(C(C)C(=O)NCc2ccc(C(F)(F)F)nc2N2CCC(C)CC2)cn1` (stereo not drawn) [compound 87], the Ki is reported as 27 nM. `CC1CCN(c2nc(C(F)(F)F)ccc2CNC(=O)Nc2cncc(CO)c2)CC1` [compound 126] was tested, and the Ki was 26 nM. With `CC1CCN(c2nc(C(F)(F)F)ccc2CNC(=O)Nc2cnc(N(C)C)c(C(F)(F)F)c2)CC1` [compound 104] the Ki was 9 nM. For `CC1CCN(c2nc(C(F)(F)F)ccc2CNC(=O)C(C)c2ccc(NC(=O)c3ccc(Cl)cc3)nc2)CC1` (stereo not drawn) [compound 99], the Ki was 9 nM. With `CC1CCN(c2nc(C(F)(F)F)ccc2CNC(=O)C(C)c2ccc(N)c(Br)n2)CC1` (stereo not drawn) [compound 84] the Ki was 50 nM. For `CC1CCN(c2nc(C(F)(F)F)ccc2CNC(=O)Nc2ccnnc2)CC1` [compound 42], the Ki was 9 nM. In the case of `CC1CCN(c2nc(C(F)(F)F)ccc2CNC(=O)C(C)c2ccc(NCCO)nc2)CC1` (stereo not drawn) [compound 85], the Ki is reported as 2 nM. With `CC1CCN(c2nc(C(F)(F)F)ccc2CNC(=O)Nc2ccncc2CO)CC1` [compound 128] the Ki was 69 nM. `O=C(Cc1ccccn1)NCc1ccc(C(F)(F)F)nc1N1CCCC1` [compound 10] showed a Ki of 73 nM. `CC(C(=O)NCc1ccc(C(F)(F)F)nc1N1CCCCC1)c1cnc(C(=O)Nc2ccc(F)cc2)nc1` (stereo not drawn) [compound 79] showed a Ki of 11 nM. `CC(C(=O)NCc1ccc(C(F)(F)F)nc1N1CCOCC1)c1cnc(C(=O)Nc2ccc(F)cc2)nc1` (stereo not drawn) [compound 80] gave a Ki of 60 nM. `CC1CCN(c2nc(C(F)(F)F)ccc2CNC(=O)Nc2ccc(CO)nc2)CC1` [compound 55] showed a Ki of 11 nM. Work on `CC1CCN(c2nc(C(F)(F)F)ccc2CNC(=O)Cc2ccccn2)CC1` [compound 13] yielded a Ki of 7 nM. For `CC1CCN(c2nc(C(F)(F)F)ccc2CNC(=O)C(C)c2cccnc2)CC1` (stereo not drawn) [compound 32], the Ki was 10 nM. `CC1CCN(c2nc(C(F)(F)F)ccc2CNC(=O)Nc2ccc(N3CCC3)nc2)CC1` [compound 105] showed a Ki of 27 nM. For `CC1CCN(c2nc(C(F)(F)F)ccc2CNC(=O)C(C)c2ccc(NC(=O)c3ccccc3)nc2)CC1` (stereo not drawn) [compound 98], the Ki was 63 nM. `COc1cc(C(C)C(=O)NCc2ccc(C(F)(F)F)nc2N2CCC(C)CC2)cnc1NS(C)(=O)=O` (stereo not drawn) [compound 97] gave a Ki of 2 nM. Work on `COCCOc1ccc(NC(=O)NCc2ccc(C(F)(F)F)nc2N2CCC(C)CC2)cn1` [compound 124] yielded a Ki of 4 nM. Compound `CC1CCN(c2nc(C(F)(F)F)ccc2CNC(=O)C(C)c2ccc(C(=O)Nc3ccccc3)nc2)CC1` (stereo not drawn) [compound 75] has a Ki of 57 nM. With `CC1CCN(c2nc(C(F)(F)F)ccc2CNC(=O)Nc2cnc(CCS(C)(=O)=O)c(F)c2)CC1` [compound 67] the Ki was 6 nM. `CC1CCN(c2nc(C(F)(F)F)ccc2CNC(=O)Cc2cncnc2)CC1` [compound 47] gave a Ki of 38 nM. For `CC1CCN(c2nc(C(F)(F)F)ccc2CNC(=O)Cc2cnccn2)CC1` [compound 40], the Ki was 107 nM. Work on `Cc1cccc(-c2nc(C(F)(F)F)ccc2CNC(=O)C(C)c2cnc(C(=O)Nc3ccc(F)cc3)nc2)c1` (stereo not drawn) [compound 81] yielded a Ki of 5 nM. With `CC1CCN(c2nc(C(F)(F)F)ccc2CNC(=O)Nc2ccc(CO)cn2)CC1` [compound 127] the Ki was 61 nM. `CC1CCN(c2nc(C(F)(F)F)ccc2CNC(=O)Nc2ccc(C(O)CO)nc2)CC1` (stereo not drawn) [compound 129] showed a Ki of 39 nM. In the case of `CC1CCN(c2nc(C(F)(F)F)ccc2CNC(=O)C(C)c2ccc(N(C)CCO)nc2)CC1` (stereo not drawn) [compound 89], the Ki is reported as 53 nM. In the case of `O=C(NCc1ccc(C(F)(F)F)nc1-c1cccc(F)c1)Nc1ccc(NCCO)nc1` [compound 130], the Ki is reported as 15 nM. Compound `CC1CCN(c2nc(C(F)(F)F)ccc2CNC(=O)Cc2ccncn2)CC1` [compound 39] has a Ki of 11 nM. With `CC1CCN(c2nc(C(F)(F)F)ccc2CNC(=O)Nc2ccc(N3CCCC3)nc2)CC1` [compound 114] the Ki was 12 nM. Work on `O=C(NCc1ccc(C(F)(F)F)nc1-c1cncc(Cl)c1)Nc1ccc(NCCO)nc1` [compound 131] yielded a Ki of 29 nM. With `COc1cc(NC(=O)NCc2ccc(C(F)(F)F)nc2N2CCC(C)CC2)cnc1N1CCCC1` [compound 116] the Ki was 78 nM. For `CCNc1nc(C(F)(F)F)ccc1CNC(=O)C(C)c1cnc(C(=O)Nc2ccc(F)cc2)nc1` (stereo not drawn) [compound 77], the Ki was 80 nM. With `CC1CCN(c2nc(C(F)(F)F)ccc2CNC(=O)Nc2ccc(OCCO)nc2)CC1` [compound 123] the Ki was 11 nM. `CC1CCN(c2nc(C(F)(F)F)ccc2CNC(=O)C(C)c2cnc(NS(C)(=O)=O)c(F)c2)CC1` (stereo not drawn) [compound 96] gave a Ki of 1 nM. Compound `CC1CCN(c2nc(C(F)(F)F)ccc2CNC(=O)Nc2ccc(N3CC(O)C3)nc2)CC1` [compound 108] has a Ki of 12 nM. `COc1cc(NC(=O)NCc2ccc(C(F)(F)F)nc2N2CCC(C)CC2)cnc1N1CCC1` [compound 107] showed a Ki of 81 nM. For `CC1CCN(c2nc(C(F)(F)F)ccc2CNC(=O)Nc2ccc(N3CC[C@H](O)C3)nc2)CC1` [compound 117], the Ki was 9 nM.

Same assay, conditions: inhibition at 1 μM compound, capsaicin (CAP)
In the case of `COCCN(C)c1ccc(NC(=O)NCc2ccc(C(F)(F)F)nc2N2CCC(C)CC2)cn1` [compound 91], the “TRPV1 human (f) CAP, inhibition (as a percentage) @ 1 μM” value is reported as 12% @ 1 μM.

Same assay, conditions: inhibition at 5 μM compound, capsaicin (CAP)
With `O=C(Cc1ccccn1)NCc1ccc(C(F)(F)F)nc1-c1ccc(F)c(Cl)c1` [compound 6] the “TRPV1 human (f) CAP, inhibition (as a percentage) @ 5 μM” value was 48% @ 5 μM.

Same assay, conditions: inhibition at 5 μM compound, capsaicin (CAP); read-out: TRPV1 human (f) CAP, inhibition (as a percentage) @ 5 μM
Work on `COc1cccc(-c2nc(C(F)(F)F)ccc2CNC(=O)Cc2ccccn2)c1` [compound 8] yielded an inhibition at 5 µM of 39%. Work on `CC(C(=O)NCc1ccc(C(F)(F)F)nc1N1CCOCC1)c1ccc(NS(C)(=O)=O)nc1` (stereo not drawn) [compound 95] yielded an inhibition at 5 µM of 34%. For `CCCCNc1nc(C(F)(F)F)ccc1CNC(=O)Cc1ccccn1` [compound 9], the inhibition at 5 µM was 23%. Compound `CC1CCN(c2nc(C(F)(F)F)ccc2CNC(=O)Cc2ncccn2)CC1` [compound 41] has an inhibition at 5 µM of 39%. With `O=C(Cc1ccccn1)NCc1ccc(C(F)(F)F)nc1N1CCOCC1` [compound 22] the inhibition at 5 µM was 32%. `COCCOCc1nc(C(F)(F)F)ccc1CNC(=O)Cc1ccccn1` [compound 24] showed an inhibition at 5 µM of 13%. For `Cc1cccc(-c2nc(C(F)(F)F)ccc2CNC(=O)Cc2ccccn2)c1` [compound 7], the inhibition at 5 µM was 18%.

Same assay, conditions: printed in the Ki column instead of a value
With `CC1CCN(c2nc(C(F)(F)F)ccc2CNC(=O)Cc2ccncc2)CC1` [compound 38] the “TRPV1 human (f) CAP, agonist (AG)” value was “AG”. For `CC1CCN(c2nc(C(F)(F)F)ccc2CNC(=O)C(C)c2ccc(Cl)nc2)CC1` (stereo not drawn) [compound 49], the “TRPV1 human (f) CAP, agonist (AG)” value was “AG”. `CC1CCN(c2nc(C(F)(F)F)ccc2CNC(=O)C(C)c2ccc(C(N)=O)nc2)CC1` (stereo not drawn) [compound 74] was tested, and the “TRPV1 human (f) CAP, agonist (AG)” value was “AG”.
